Measurements: a melting point compilation (Tetko et al.; mined from patent text by program, amines drawn as free bases though some values may be those of a salt)
Residues, ends and D or L forms follow the SMILES beside them. *: point of attachment. Bz = O=C(c1ccccc1)*

Compound	melting point
O=C1CCCN1CCc1ccccc1	50.5 to 52.5 °C
CC1(C)CCC(C)(C)c2cc(-c3cc(-c4ccc(C(=O)O)cc4)ccc3OCCCO)ccc21	317 °C
CSc1ccc(-c2cn3c(c2-c2ccccc2)CCC3)cc1	112 °C
CCOC(=O)N1Cc2ccccc2C(Oc2cccc(C(F)(F)F)c2)C1 (centres undefined)	98 to 100 °C
CC(C)(C)OC(=O)NC1CCN(c2ccc(C#N)cc2)CC1	188 to 189 °C
COc1ccc(C(=O)CCCN2CCC(OC(=O)c3cc(Cl)c(N)c4c3OCC4)CC2)cc1OC	156 °C
COc1nc2sccc2c2nc(S(=O)(=O)Nc3c(Cl)cccc3Cl)nn12	224 to 226 °C
CC(=O)Nc1ccc(N2CCNC2=O)cc1	270 to 273 °C
CCOC(=O)CC(=O)c1ccncn1	52.3 °C
CCOc1ccc(S(=O)(=O)N2CCN(C)CC2)cc1-c1nc2cccnc2c(=O)[nH]1	212 to 215 °C
COc1ccc(-c2ccc(Cl)cc2)c(COc2ccc(-c3nc4cc(C(=O)O)ccc4n3C3CCCCC3)cc2)c1	248 to 249 °C
NCC#CC1(Cl)C=CC=CC1C(=O)c1ccccc1Cl (centres undefined)	81 to 82 °C
CN(C)c1ccc(N=Nc2ccccc2C(=O)NCCNC(=O)OC(C)(C)C)cc1	131 to 134 °C
COc1ccc(C2NCCc3c2[nH]c2ccccc32)cc1 (centres undefined)	131 °C
Nc1c(OCCCl)cc(Cl)cc1[N+](=O)[O-]	109 to 110 °C
CCOCc1nc2c(N)nc3ccccc3c2n1CC(C)(C)C(N)=O	241 to 243 °C
CCCN1Cc2c(ncnc2C2C(=O)Nc3ccc(C#N)cc32)N1 (centres undefined)	> 300 °C
CC(C)CNC(=O)CN=Cc1ccccc1F	154 °C
O=C1[C@@H](O)CCN1CC#CCn1ccnc1	127 to 128 °C
Cc1ccc(C)n1-c1cc2c(cc1C(F)(F)F)[nH]c(=O)c(=O)n2CCC(=O)NCc1ccccc1	260 to 262 °C
O=C(c1ccccc1F)c1cc(Br)ccc1NC(=O)C(F)(F)F	132 °C
O=c1[nH]c2ccccc2n1CCN1CCC(Cc2c[nH]c3ccc(F)cc23)CC1	220 °C

Compound	melting point
COc1ccc2c(c1)CCc1c-2n(-c2ccccc2)c2ncccc2c1=O	234 to 238 °C
O=[N+]([O-])c1ccc(C=Cc2ccncn2)cc1	213 to 215 °C
CCNC(=O)[C@H](C)NC(=O)[C@H](C)NC(=O)c1ccccc1 (Bz-Ala-Ala-NHEt)	237 to 239 °C
O=S(=O)(c1ccc(Cl)cc1)C1(c2cnccc2Cl)CCCCC1	145 to 147 °C
FC(F)(F)c1cc(Nc2nc3ccccc3o2)cc(C(F)(F)F)c1	178 to 180 °C
CN1CCN(CC2COc3cc4ncnc(Nc5cccc(Br)c5)c4cc3O2)CC1 (centres undefined)	182 to 189 °C
CS(=O)(=O)c1nc(Cl)c(-c2c(F)cc(F)cc2F)c(N2CCCO2)n1	210 to 219 °C
O=C1C=CC(O)(c2ccccc2)C=C1	102 to 103 °C
CCN(c1cccc2cc(C(=O)NCCSC(c3ccccc3)(c3ccccc3)c3ccccc3)[nH]c12)S(=O)(=O)c1cccs1	58 to 61 °C
CC(=O)OC[C@H]1NC(=O)[C@@H](Cc2cn(C)c3ccccc23)NC1=O	250 to 252 °C
Cc1cccc(C)c1NC(=O)c1ccc(O)cc1	232 to 234 °C
O=C1Cc2cccc(Oc3ccccc3Cl)c2O1	118 to 120 °C
O=C1NC(=O)c2c1c(-c1ccccc1Cl)cc1c2cc(C(=O)O)n1CCCBr	294 to 295 °C
O=C(O)Cc1cccc2c(-c3ccc(Br)cc3)onc12	190 to 192 °C
O=C(O)C(=O)Nc1ccccc1C(=O)NC1CCN(C2CCCCC2)C1 (centres undefined)	268 to 270 °C
O=c1ssc(N2CCc3ccccc3CC2)c1Cl	141 °C
N#Cc1nn(-c2c([N+](=O)[O-])cc(C(F)(F)F)cc2[N+](=O)[O-])c(N)c1SC(F)(F)F	214 °C
CC(NC(=O)Oc1cccc2c1C1(C)CCN(C)C1N2C)c1ccccc1 (centres undefined)	151 to 155 °C
C=C(CC)C(=O)c1ccc(OCCCC(=O)O)c(Cl)c1Cl	87 to 89 °C
CCc1cccc(NC(=O)C(C)(C)C)n1	59 to 62 °C
COc1ccc(-c2ccncc2)cc1-c1cccc([N+](=O)[O-])c1	145 to 150 °C
CC(C)(C)OC(=O)c1ncn2c1[C@@H]1CCCN1C(=O)c1c(Cl)cccc1-2	216 to 217 °C

Continued, values first:

melting point	Compound
56 to 57 °C	CCCOc1cc(/C=C/C(=O)OCC)n(Cc2ccccc2)n1
171 to 177 °C	CC1c2cc(C(C)(C)C)cc(C(C)(C)C)c2O[Si](C)(C)Oc2c1cc(C(C)(C)C)cc2C(C)(C)C
193 to 194 °C	CCCOCCN(C)c1ccc(-c2ccc3c(c2)C=C(C(=O)Nc2ccc(CN(C)C4CCOCC4)cc2)CCS3(=O)=O)cc1
109 to 110 °C	O=[N+]([O-])c1ccccc1-c1ccc(CBr)cc1
189 to 192 °C	NC1C(=O)N2C1SC1(CCOCC1)C2C(=O)O (centres undefined)
170 to 172 °C	O=c1c2cccnc2c(-c2cccc(Cl)c2)cn1Cc1ccncc1
220 °C	O=C(Nc1ccc2ccc(Cl)nc2n1)c1ccncc1
120 to 121 °C	Clc1cnc2c(-c3ccccc3)nc(-c3ccccc3)nc2c1
110 to 112 °C	CCCCC(Cc1ccc(OCCCN(C)C(=O)c2ccc(-c3ccccn3)cc2)cc1)C(=O)O (centres undefined)
178 to 180 °C	CC(=O)Nc1cc2c(cc1[N+](=O)[O-])OC(C)(C)[C@@H](O)[C@@H]2NC(=O)CCCCl (relative stereo)
124 to 125 °C	Cc1oc(C=Cc2ccc(Cl)cc2)nc1CC#N
175 °C	O=C1CCC(C(=O)c2ccccc2)N1 (centres undefined)
157 to 162 °C	CC1(O)CC(=O)OC(c2ccc(OCc3ccccc3)cc2)C1Br (centres undefined)
126 to 128 °C	Cc1nn(-c2c(Cl)cc(C(F)(F)F)cc2Cl)nc1COS(C)(=O)=O
136 to 138 °C	CCOC(=O)N1CCN(c2nc3cccccc-3n2)CC1
284 to 288 °C	NC(=O)c1c[nH]c2ccc([N+](=O)[O-])cc12
38 to 39 °C	CN(C)Cc1ccc(CN)cc1
150 to 152 °C	COc1ccc(OC)c(CC(=O)c2ccc(C(C)C)c(OS(N)(=O)=O)c2C(C)C)c1
138 to 140 °C	Cc1nc(-c2ccccc2)nc(-c2cccc([N+](=O)[O-])c2)c1CN1CCN(C)CC1
272 °C	Cc1c(OCC2=NCCN2)ccc(Br)c1NS(C)(=O)=O

melting point	Compound
124 to 126 °C	CS(=O)(=O)c1cccc(C/C=C(/F)CN2C(=O)c3ccccc3C2=O)c1
202 to 204 °C	Cc1c(-c2ccccc2)c2cc(Cl)cc3c2n1CC3
84 to 86 °C	Cc1cc(CC#N)cc(Cc2nc3c(F)c(F)ccc3s2)c1
86.5 to 87.5 °C	COc1ccc(/C=C(\C#N)c2cccnc2)cc1OC1CCCC1
136 to 138 °C	CCCn1c(=O)c2[nH]c(C3CC4CCC3C4)nc2n(CCC)c1=O (centres undefined)
139 to 140 °C	O=c1cc(NCC2CCCO2)oc2c1ccc1ccccc12 (centres undefined)
162 to 163 °C	CC(=O)Nc1ncc(SCC(=O)OC(C)(C)C)s1
241 to 242 °C	Cn1c(C(=O)O)cc(=O)c2oc3ccc(Cl)cc3c(=O)c21
173 to 174 °C	CC(=O)N1CC(C)(C)c2c1cc(C)c(O)c2C
170 to 171 °C	COc1ccc(C2=C(c3ccc(S(N)(=O)=O)cc3)CCC2)cc1F
144 to 145 °C	Cc1cc(C)c(C(=O)COc2ccc(C(=O)C(=O)O)cc2)c(C)c1
162 °C	O=C(NC1CCC(c2cc(Nc3cccc(C(F)(F)F)c3)n[nH]2)C1)c1ccccn1 (centres undefined)
94 to 96 °C	CCCc1c(OCCCCCc2ccccc2CCC(=O)O)ccc2c1OCCC2=O
78 to 80 °C	CCn1c2ccccc2c2cc(I)ccc21
101 to 102 °C	O=[N+]([O-])c1ccc(OCCCCCOc2ccc([N+](=O)[O-])cc2)cc1
> 270 °C	COCC(O)c1nc2cc(Cl)ccc2c(O)c1C(=O)Nc1nccs1 (centres undefined)
179 to 181 °C	CCOCc1nc2c(c(C)c(C)n3nnnc23)n1CCNC(=O)C(C)C
85 to 88 °C	CCOc1ccc([N+](=O)[O-])cn1
173 °C	O=C(Nc1ccc2ccc(Cl)nc2n1)N1CC=CCC1
270 to 290 °C	O=C(Nc1cccnc1)c1cc2ccncc2[nH]1

melting point	Compound
147 to 148 °C	CC(C)(CNc1ccc(C2=NNC(=O)CC2)cc1)NCC(O)COc1ccccc1 (centres undefined)
195 to 196 °C	Clc1ccc2c(c1)N=C(NCCc1cccnc1)c1ccccc1N2
110 to 111 °C	O=C(O)C(Cc1ccccc1F)Cc1ccccc1F
271 °C	O=C1Nc2ccc(Cl)cc2C1(O)c1cccc2c1OCO2 (centres undefined)
76 °C	Cc1cc(Cl)nc(Br)c1
122 °C	COc1cc(Nc2nccc(C(C)(C)C)n2)cc(OC)c1OC
133 to 135 °C	O=C(Nc1cc(Cl)cc(Cl)c1)C(Cl)Cl
149 to 153 °C	COC(=O)CN1CC(=O)NC1=NN=Cc1ccccc1
118 to 120 °C	COc1cccc(OC)c1/C=C/S(=O)(=O)CS(=O)(=O)/C=C/c1c(OC)cccc1OC
268 to 270 °C	COC(=O)c1cc(-c2c(-c3ccccc3)nn3ccccc23)cn(C)c1=O
210 °C	Cn1cc(C(=O)NCC(=O)NCC2(O)CCC2)c(C(F)(F)F)n1
150 to 151 °C	COc1nnc(-c2ccc3ncn(-c4ccc(OC(F)(F)F)cc4)c3c2)o1
194 to 196 °C	CN1Cc2ccccc2C(=O)c2cc(CC(=O)O)ccc21
131 to 133 °C	Cc1cc(OCc2ccc(-c3ccc(OC(F)(F)F)cc3)nc2C2CC2)ccc1OC(C)(C)C(=O)O
166 to 167 °C	O=C(CCl)c1ccc2c(c1)[C@H](NC(=O)C(F)(F)F)CC2
118 to 120 °C	CN1C(=O)c2cc(Cl)ccc2N(C(=O)CCN2CCCC2)c2ccccc21
241 to 243 °C	Cc1nc2c(s1)-c1nc(N)ncc1CC2
90 to 92 °C	O=C(c1cccs1)c1cnn2c(-c3cccc(NCc4ccccc4)c3)ccnc12
198 to 200 °C	CC(=NO)NC/C(F)=C\CC[C@H](N)C(=O)O
155 °C	CSC(=CC(=O)c1cnccn1)SC
